Holding throughout (test): Test 1A glasshouse assay, post-emergence herbicidal activity
Common to all, as to format: in vivo

Assay [1] has as its system Avena fatua (AVEFA). Conditions: application rate 250 g/ha, 13 days after application, visual (100%=total damage; 0%=no damage); for pest or weed control at 250 g/ha: Avena fatua, 312 h, read-out: Post-emergence Herbicidal Activity (% Phytotoxicity) AVEFA. As for the experimental part: (§1) Seeds of a variety of test species were sown in standard soil in pots. After cultivation for one day (pre-emergence) or after 8 days cultivation (post-emergence) under controlled conditions in a glasshouse (at 24/16° C., day/night; 14 hours light; 65% humidity), the plants were sprayed with an aqueous spray solution derived from the formulation of the technical active ingredient in acetone/water (50:50) solution containing 0.5% Tween 20 (polyoxyethelyene sorbitan monolaurate, CAS RN 9005-64-5). The test plants were then grown under controlled conditions in a glasshouse (at 24/16° C., day/night; 14 hours light; 65% humidity) and watered twice daily. 13 days after application of the test herbicide, for pre- and post-emergence, the test was evaluated visually for percentage phytotoxicity to the plant (where 100%=total damage to plant; 0%=no damage to plant).
(§2) Lolium perenne (LOLPE), Alopecurus myosuroides (ALOMY), Echinochloa crus-galli (ECHCG), and Avena fatua (AVEFA); these are all grassy monocotyledonous weeds.

The test system of assay [2] is Lolium perenne (LOLPE). Conditions: application rate 250 g/ha, 13 days after application, visual (100%=total damage; 0%=no damage); for pest or weed control at 250 g/ha: Lolium perenne, 312 h, read-out: Post-emergence Herbicidal Activity (% Phytotoxicity) LOLPE. As for the experimental part: as §1, §2
Assay [3] has as its system Alopecurus myosuroides (ALOMY). Conditions: application rate 250 g/ha, 13 days after application, visual (100%=total damage; 0%=no damage); for pest or weed control at 250 g/ha: Alopecurus myosuroides, 312 h, read-out: Post-emergence Herbicidal Activity (% Phytotoxicity) ALOMY. The method, then:
as §1, §2

The subject of assay [4] is Echinochloa crus-galli (ECHCG). Conditions: application rate 250 g/ha, 13 days after application, visual (100%=total damage; 0%=no damage); for pest or weed control at 250 g/ha: Echinochloa crus-galli, 312 h, read-out: Post-emergence Herbicidal Activity (% Phytotoxicity) ECHCG. The method, then: as §1, §2

With `Cc1cc(C)c(C2C(=O)CC(CCNC(=O)c3nonc3C)C2=O)c(C)c1` (centres unmarked) [Compound A51], the pest or weed control at 250 g/ha came out at 90% in assay [1], 100% in assay [2], 100% in assay [3] and 90% in assay [4].
As to `Cc1cc(C)c(C2C(=O)CC(CCNC(=O)c3cc4ccccc4n3C)C2=O)c(C)c1` (centres unmarked) [Compound A52], the pest or weed control at 250 g/ha in assay [1] was 70%; in assay [2], 90%; in assay [3], 70%; in assay [4], 100%.
Regarding `Cc1cc(C)c(C2C(=O)CC(CCNC(=O)c3cscn3)C2=O)c(C)c1` (centres unmarked) [Compound A53], the pest or weed control at 250 g/ha in assay [1] turned out to be 90%; in assay [2] it was 100%; in assay [3], 80%; in assay [4] it was 100%.
For `Cc1cc(C)c(C2C(=O)CC(CCNC(=O)c3nn(C)nc3C)C2=O)c(C)c1` (centres unmarked) [Compound A54], the pest or weed control at 250 g/ha in assay [1] is 100%; in assay [2], 100%; in assay [3], 100%; in assay [4], 60%.
Take `Cc1cc(C)c(C2C(=O)CC(CCNC(=O)c3cnccn3)C2=O)c(C)c1` (centres unmarked) [Compound A55]: the pest or weed control at 250 g/ha in assay [1] came to 60%; in assay [2], 90%; in assay [3], 80%; in assay [4], 90%.
As for `Cc1cc(C)c(C2C(=O)CC(CCNC(=O)c3cnc(C)cn3)C2=O)c(C)c1` (centres unmarked) [Compound A56], the pest or weed control at 250 g/ha in assay [1] stood at 90%; in assay [2], 100%; in assay [3], 100%; in assay [4] it was 90%.
Consider `Cc1cc(C)c(C2C(=O)CC(CCNC(=O)c3ccc(C#N)cn3)C2=O)c(C)c1` (centres unmarked) [Compound A57A], for which, in assay [1], the “Post-emergence Herbicidal Activity (% Phytotoxicity) AVEFA” value is 90%. In assay [2], the “Post-emergence Herbicidal Activity (% Phytotoxicity) LOLPE” value came to 90%. Moreover, the “Post-emergence Herbicidal Activity (% Phytotoxicity) ALOMY” value in assay [3] is reported as 100%. For the same molecule, the “Post-emergence Herbicidal Activity (% Phytotoxicity) ECHCG” value in assay [4] is 90%.
Consider `Cc1cc(C)c(C2C(=O)CC(CCNC(=O)c3ccc(C#N)cn3)C2=O)c(C)c1` (centres unmarked) [Compound A57], for which the pest or weed control at 250 g/ha in assay [1], in assay [2], in assay [3] and in assay [4] was 100% each time.
For the molecule `Cc1cc(C)c(C2C(=O)CC(CCNC(=O)c3cccn3C)C2=O)c(C)c1` (centres unmarked) [Compound A58], the pest or weed control at 250 g/ha came out at 30% in assay [1], 80% in assay [2], 50% in assay [3] and 50% in assay [4].
For `Cc1cc(C)c(C2C(=O)CC(CCNC(=O)c3nccn3C)C2=O)c(C)c1` (centres unmarked) [Compound A59], the pest or weed control at 250 g/ha in assay [1] worked out at 60%; in assay [2], 80%; in assay [3], 60%; in assay [4], 30%.
For the molecule `Cc1cc(C)c(C2C(=O)CC(CCNC(=O)c3cnsn3)C2=O)c(C)c1` (centres unmarked) [Compound A60], the pest or weed control at 250 g/ha worked out at 90% in assay [1], 80% in assay [2], 80% in assay [3] and 70% in assay [4].
As to `Cc1cc(C)c(C2C(=O)CC(CCNC(=O)c3cc(C)on3)C2=O)c(C)c1` (centres unmarked) [Compound A61], the pest or weed control at 250 g/ha in assay [1] was 60%; in assay [2] it was 100%; in assay [3], 90%; in assay [4], 70%.
For `Cc1cc(C)c(C2C(=O)CC(CCNC(=O)c3ncccc3C)C2=O)c(C)c1` (centres unmarked) [Compound A62] the same measures were 80%, 100%, 100% and 80%.
Regarding `Cc1cc(C)c(C2C(=O)CC(CCNC(=O)c3nccc4ccccc34)C2=O)c(C)c1` (centres unmarked) [Compound A63], the pest or weed control at 250 g/ha was 90% in assay [1], 100% in assay [2], 90% in assay [3] and 90% in assay [4].
For `Cc1cc(C)c(C2C(=O)CC(CCNC(=O)c3cccc(C)n3)C2=O)c(C)c1` (centres unmarked) [Compound A64], the pest or weed control at 250 g/ha in assay [1] was determined as 80%; in assay [2] it was 80%; in assay [3], 90%; in assay [4] it was 60%.
For `COc1cc(Cl)nc(C(=O)NCCC2CC(=O)C(c3c(C)cc(C)cc3C)C2=O)c1` (centres unmarked) [Compound A65], the pest or weed control at 250 g/ha in assay [1] was 70%; in assay [2], 80%; in assay [3], 100%; in assay [4] it was 80%.
As for `Cc1cc(C)c(C2C(=O)CC(CCNC(=O)c3cccc(N)n3)C2=O)c(C)c1` (centres unmarked) [Compound A66], the pest or weed control at 250 g/ha worked out at 40% in assay [1], 60% in assay [2], 80% in assay [3] and 70% in assay [4].
For `COc1cc(OC)nc(C(=O)NCCC2CC(=O)C(c3c(C)cc(C)cc3C)C2=O)n1` (centres unmarked) [Compound A69] the same measures were 70%, 60%, 50% and 30%.
In the case of `Cc1cc(C)c(C2C(=O)CC(CCNC(=O)c3ncc(C)nc3N)C2=O)c(C)c1` (centres unmarked) [Compound A70], the pest or weed control at 250 g/ha in assay [1] was 90%; in assay [2], 100%; in assay [3], 100%; in assay [4] it was 90%.
Regarding `Cc1cc(C)c(C2C(=O)CC(CCNC(=O)c3nc(C)oc3C(F)(F)F)C2=O)c(C)c1` (centres unmarked) [Compound A71], the pest or weed control at 250 g/ha worked out at 90% in assay [1], 100% in assay [2], 100% in assay [3] and 80% in assay [4].
For the molecule `Cc1cc(C)c(C2C(=O)CC(CCNC(=O)c3cc(C)nn3C)C2=O)c(C)c1` (centres unmarked) [Compound A72], the pest or weed control at 250 g/ha came to 90% in assay [1], 90% in assay [2], 90% in assay [3] and 70% in assay [4].
Turning to `Cc1cc(C)c(C2C(=O)CC(CCNC(=O)c3csc(C)n3)C2=O)c(C)c1` (centres unmarked) [Compound A73], the pest or weed control at 250 g/ha amounted to 90% in assay [1], 80% in assay [2], 90% in assay [3] and 90% in assay [4].
With `Cc1cc(C)c(C2C(=O)CC(CCNC(=O)c3n[nH]c4ccccc34)C2=O)c(C)c1` (centres unmarked) [Compound A74], the pest or weed control at 250 g/ha is 30% in assay [1], 80% in assay [2], 90% in assay [3] and 70% in assay [4].
For `Cc1cc(C)c(C2C(=O)CC(CCNC(=O)c3cc(C)n(C)n3)C2=O)c(C)c1` (centres unmarked) [Compound A75] the same measures were 90%, 90%, 90% and 90%.
The corresponding values for `Cc1cc(C)c(C2C(=O)CC(CCNC(=O)c3c(C)nc4ccccn34)C2=O)c(C)c1` (centres unmarked) [Compound A76] are 90%, 60%, 70% and 80%.
The corresponding values for `Cc1cc(C)c(C2C(=O)CC(CCNC(=O)c3nn(C)cc3C(F)(F)F)C2=O)c(C)c1` (centres unmarked) [Compound A77] are 90%, 90%, 70% and 90%.
Regarding `Cc1cc(C)c(C2C(=O)CC(CCNC(=O)c3nc(C)ncc3Br)C2=O)c(C)c1` (centres unmarked) [Compound A78], the pest or weed control at 250 g/ha in assay [1] came out at 80%; in assay [2] it was 60%; in assay [3], 80%; in assay [4], 80%.
`Cc1cc(C)c(C2C(=O)CC(CCNC(=O)c3sc(C)nc3C)C2=O)c(C)c1` (centres unmarked) [Compound A79]: the pest or weed control at 250 g/ha in assay [1] stood at 80%; in assay [2] it was 70%; in assay [3], 80%; in assay [4] it was 70%.
For the molecule `CCc1cc(Br)cc(C)c1C1C(=O)CC(CCNC(=O)c2ccccn2)C1=O` (centres unmarked) [Compound A83], the pest or weed control at 250 g/ha in assay [1], in assay [2], in assay [3] and in assay [4] was 100% in each case.
